# Data published in patent US12269808B2, “Amino dithioperacid thioester compound, preparation method therefor, and use thereof” (FUDAN UNIVERSITY, priority 2019, dated 2025).
# How the values were obtained:
# [1] = tested on: BALB/c mice bearing C26 tumors; assay: C26 tumor cancer cachexia animal model; assay type: in vivo, mouse; conditions: 5 mg/kg oral gavage (i.g)
# Description: The experimental results of cancer cachexia animal models treated with compound 4, by the following methods.
# C26 cells were cultured in T75 culture flasks in the culture medium (RPMI-1640 medium containing 10% FBS, and P/S) and placed in a 5% CO2, 37° C. environment. The cells were harvested by centrifugation at 1000 rpm for 3 min, and washed with ice-cold PBS buffer to remove the remaining culture medium and prepared into a cell suspension of 1×10^7 cells/mL. The cell suspension was inoculated into the left and right armpits of BALB/c mice with 1×10^6 cells/mouse for subsequent inoculation. When the tumor volume increased to about […], the tumor was removed and homogenized at 3.5 mL of ice-old saline/g to obtain tumor tissue suspension. The mice to be inoculated were grouped according to their body weight, and the cell suspension was inoculated into the left armpit of BALB/c mice at the amount of 100 μL/mouse. The administration of the drug was started the day after inoculation. Compound 4 was first dissolved in DMSO and then mixed with pre-warmed PBS solution (37° C.) to form a homogeneous and stable solution at a final concentration of 1 mg/mL (3% DMSO+2% anhydrous ethanol+1% polyoxyethylene castor oil). The dose was 5 mg/kg and the route of administration was oral gavage (i.g). The body weight, body temperature, tumor size and food intake of the mice were monitored daily. The mice in the model group were considered to be in the advanced stage of cachexia when they were about 10% weight loss after 16 days. The muscle grip of mice's limbs was measured, and samples of gastrocnemius muscle, epididymal fat and tumor were obtained after the mice were executed by […] and the tissue samples were weighed.
# The measurement method of the muscle grasping force is as follows: The researcher holds the mouse steadily with his right hand, puts the mouse on the “YLS-13A rat and mouse grasping force measuring instrument” to let the forelimbs of mouse firmly grasp the grasping plate and uses his left hand to stabilize the grasping plate. To measure the muscle grasping force of the mouse, the researcher slowly releases his left hand from the grasping plate and immediately uses his right hand to pull the mouse's tail backward slowly until the forelimbs are free from the grasping plate. Each mouse is repeated 8 times, and the average value of the 8 times is used as the skeletal muscle strength index of each mouse.
# Results and Conclusions: Referring to FIGS. 48 to 58, the three curves in the figures represent the healthy group, the C26 tumor model group and the dosing group (compound 4 group, where compound 4 was administrated at a dose of 5 mg/kg), respectively.
# [2] = tested on: mouse myoblasts (C2C12) myotubes; assay: C2C12 myotube atrophy induced by C26 cell culture medium (HE staining, myotube diameter); assay type: cell-based; conditions: for Myotube atrophy reversal rate (%): 48 h, C26 medium-induced C2C12 myotubes
# Text: Carbamo(dithioperoxo)thioate analogs alleviate mouse myoblasts (C2C12) atrophy induced by mouse colon cancer cell (C26).
# The diameter measurement method was used to evaluate the diameter of myotubes differentiated from mouse myoblasts (C2C12). The staining method used in the experiment was hematoxylin-eosin staining, referred to as HE staining. The hematoxylin stain is alkaline, positively charged, and easily binds to negatively charged and acidic deoxyribonucleic acid (DNA) in the nucleus with ionic bonding to show blue; while eosin is an acidic dye that dissociates into negatively charged anions in water and easily binds to the positively charged amino groups of proteins in the cytoplasm to show red. The stained cells were placed under a high-magnification microscope to take photos (magnification power: 400), and the diameter of myotubes could be counted using image J software.
# The above method allows to evaluate the effect of the drug on the muscle atrophy cell model. The specific method is as follows.
# C2C12 cells were seeded in 24-well plates in a culture medium of high-glucose DMEM medium containing 10% FBS and 1% P/S, and placed in a 5% CO2, 37° C. environment. When the cell density reaches 50%˜60%, the culture medium was changed into 2% HS differentiation medium (high-glucose DMEM medium containing 2% HS and 1% P/S); the differentiation medium was changed every 48 h until mature on day 5 or day 6. In addition, C26 cells were inoculated in T75 flasks, and the culture medium was changed into high-glucose DMEM medium containing 10% FBS and 1% P/S, and placed in a 5% CO2, 37° C. environment. While C26 cells (6×10^6 cells/flasks) were passaged, add 20 mL of culture medium to sequentially subculture for 48 h. To obtain the C26 supernatant, centrifuge C26 culture medium at 1000 rpm for 3 min and then at 4000 rpm for 10 min successively. The C26 supermatant and 2% HS differentiation medium were mixed 1:1 (volume ratio) as a muscle atrophy inducing medium. Except for the control group with 2% HS differentiation medium, other each group was added with the equal amounts of muscle atrophy-inducing medium and one group was used as the model group, and the rest groups were used as the experimental groups for drug administration. At the same time, carbamo(dithioperoxo)thioate compounds were added into the cells at the following gradient concentrations.
# Wherein, the serial numbers correspond to the numbers of the accompanying figures, that is, FIG. 1-46 correspond to the samples of serial numbers 1-46 in Table 1. μM refers to μmol/L.
# Myotube diameter was measured as follows.
# After 48 h of action, the myotubes were fixed with fixative solution (anhydrous ethanol:formaldehyde:glacial acetic acid volume ratio=20:2:1) for more than 1 h, stained using hematoxylin-eosin staining method, and placed under a high-magnification microscope to acquire images and counted the diameter of myotubes using image J. The muscle atrophy reversal rate was calculated according to the following equation. Muscle atrophy reversal rate=(Average value of myotubes in drug administration group−Average value of myotubes in model group)/(Average value of myotubes in control group−Average value of myotubes in model group)×100%
# [3] = vs C26 tumor model group, p<0.05
smiles,measurement,setting,value
CCCCCCCCCCCCSSC(=S)N1CCCC1 [Compound 4],"cancer cachexia symptoms (weight loss, muscle atrophy, fat loss, body temperature decrease)",[1],"alleviate the weight loss, muscle atrophy, fat degradation and body temperature decrease"
same,body weight with tumor vs C26 tumor model group,"[1]; end of experiment, p<0.01",higher than those in the C26 tumor model group
same,body weight without tumor vs C26 tumor model group,"[1]; end of experiment, p<0.01",higher than those in the C26 tumor model group
same,food intake,[1]; vs C26 tumor model group,higher food intake than the C26 tumor model group
same,tumor volume / growth of C26 tumors,[1]; vs C26 tumor model group,no significant inhibitory effect
same,epididymal fat mass,[1]; [3],significantly increase the epididymal fat mass
same,gastrocnemius muscle mass,[1]; [3],significantly alleviate gastrocnemius muscle atrophy
same,muscle grasping force,[1]; [3],significantly enhance the muscle grasping force
same,Myotube atrophy reversal rate (%),[2]; 3.125 μM,37.78%
same,Myotube atrophy reversal rate (%),[2]; 6.25 μM,54.53%
same,cytotoxicity (in words),[2]; 12.5 μM,non-cytotoxic
same,Myotube atrophy reversal rate (%),[2]; 12.5 μM,92.83%
same,Myotube atrophy reversal rate (%),"[2]; 12.5 μM, listed as compound 4",92.83%
